In ChEMBL document CHEMBL5126631, “Chemo- and Site-Selective Lysine Modification of Peptides and Proteins under Native Conditions Using the Water-Soluble Zolinium” (J Med Chem, 2022):

Legend:
[1] = target: T1, Replicase polyprotein 1ab (Severe acute respiratory syndrome coronavirus 2, UniProt P0DTD1); test: Inhibition of SARS-CoV-2 3CLpro preincubated for 60 mins followed by addition of Dabcyl-KNSTLQSGLRKE-Edans fluorogenic peptide as substrate by FRET assay
[2] = target: T1, Replicase polyprotein 1ab; test: Inhibition of SARS-CoV-2 3CLpro using Dabcyl-KNSTLQSGLRKE-Edans fluorogenic peptide as substrate by FRET assay
[3] = Drug localization in nucleus of human HepG2 cells by measuring quinolylated lysine residues at proteins at 20 uM measured after 24 hrs by nano LC/MS/MS analysis; assay type: ADME, cell-based; conditions: hepg2, 24 h
[4] = Drug localization in cell membrane of human HepG2 cells by measuring quinolylated lysine residues at proteins at 20 uM measured after 24 hrs by nano LC/MS/MS analysis; assay type: ADME, cell-based; conditions: hepg2, 24 h
[5] = Drug localization in cytoskeleton of human HepG2 cells by measuring quinolylated lysine residues at proteins at 20 uM measured after 24 hrs by nano LC/MS/MS analysis; assay type: ADME, cell-based; conditions: hepg2, 24 h
[6] = Drug localization in endosome of human HepG2 cells by measuring quinolylated lysine residues at proteins at 20 uM measured after 24 hrs by nano LC/MS/MS analysis; assay type: ADME, cell-based; conditions: hepg2, 24 h
[7] = Drug localization in cytoplasm of human HepG2 cells by measuring quinolylated lysine residues at proteins at 20 uM measured after 24 hrs by nano LC/MS/MS analysis; assay type: ADME, cell-based; conditions: hepg2, 24 h
[8] = Drug localization in mitochondria of human HepG2 cells by measuring quinolylated lysine residues at proteins at 20 uM measured after 24 hrs by nano LC/MS/MS analysis; assay type: ADME; conditions: hepg2, 24 h
[9] = Drug localization in cytosol of human HepG2 cells by measuring quinolylated lysine residues at proteins at 20 uM measured after 24 hrs by nano LC/MS/MS analysis; assay type: ADME, subcellular
[10] = Drug localization in endoplasmic reticulum of human HepG2 cells by measuring quinolylated lysine residues at proteins at 20 uM measured after 24 hrs by nano LC/MS/MS analysis; assay type: ADME, cell-based; conditions: hepg2, 24 h
[11] = Drug localization in golgi apparatus of human HepG2 cells by measuring quinolylated lysine residues at proteins at 20 uM measured after 24 hrs by nano LC/MS/MS analysis; assay type: ADME, cell-based; conditions: hepg2, 24 h
[12] = system: HepG2; test: Cytotoxicity against human HepG2 cells assessed as inhibition of cell viability at 25 uM measured after 48 hrs by CCK-8 assay; assay type: functional

SMILES	IC50 [1]	IC50 [2]	Drug uptake [3]	Drug uptake [4]	Drug uptake [5]	Drug uptake [6]	Drug uptake [7]	Drug uptake [8]	Drug uptake [9]	Drug uptake [10]	Drug uptake [11]	Activity [12]
C#Cc1ccc2c(ccc3[n+]2C(OC)C[Se]3)c1 (stereo unspecified)	3.66 µM	75 µM	22.61%	11.88%	11.11%	2.3%	15.71%	2.3%	19.16%	1.53%	1.53%	
COC1CSc2ccc3cc(C(=O)NCCCCCN4C(=O)c5cccc6c(N(C)C)ccc(c56)C4=O)ccc3[n+]21.Cl.[Cl-] (stereo unspecified)												90%
C#Cc1ccc2c(ccc3[n+]2C(OC)CS3)c1 (stereo unspecified)			27.19%	8.77%	7.02%	3.51%	14.04%	2.63%	17.54%	4.39%	5.26%	
